Results taken from the supplement of paper PMC10307832.

Legend:
Assay in all cases: relative viability (nuclei count vs DMSO), 5 days (fraction); higher = more cells survive
RO-3306 + Vorinostat = compound: C1=CC2=C(C=CC(=C2)C=C3C(=O)NC(=NCC4=CC=CS4)S3)N=C1 [RO-3306] + O=C(CCCCCCC(=O)Nc1ccccc1)NO [Vorinostat] (partner 1 µM)
Outline: (§1)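 A single step with final 0.05% Triton X-100, 1% formaldehyde and 1 ug/ml Hoechst fixed the cells and stained nuclei 5 days after treatment. Lung cancer cell lines in 1536-well plates had been treated by pin tool the day after seeding with one drug alone or a fixed anchor-drug dose plus five library-drug doses (not always all listed) in √10 steps, and nuclei were counted on 4× images. Relative viability is the ratio of nuclei in treated wells to nuclei in vehicle wells, taken as the median of duplicate plates.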

RO-3306 + AZD7762 = compound: C1=CC2=C(C=CC(=C2)C=C3C(=O)NC(=NCC4=CC=CS4)S3)N=C1 [RO-3306] + NC(=O)Nc1cc(-c2cccc(F)c2)sc1C(=O)N[C@H]1CCCNC1 [AZD7762] (partner 0.2 µM)
Outline: as §1

[1] = compound: O=S(=O)(c1ccccc1)N(CC(F)(F)F)c1ccc(C(O)(C(F)(F)F)C(F)(F)F)cc1 + CCNC(=O)c1noc(-c2cc(C(C)C)c(O)cc2O)c1-c1ccc(CN2CCOCC2)cc1 [Luminespib] (partner 0.01 µM)
Outline: as §1

RO-3306 + Alpelisib = compound: C1=CC2=C(C=CC(=C2)C=C3C(=O)NC(=NCC4=CC=CS4)S3)N=C1 [RO-3306] + Cc1nc(NC(=O)N2CCC[C@H]2C(N)=O)sc1-c1ccnc(C(C)(C)C(F)(F)F)c1 [Alpelisib] (partner 2 µM)
Outline: as §1

Cell Line	relative viability (RO-3306 + Vorinostat; first compound 0.01 µM)	relative viability (RO-3306 + Vorinostat; first compound 0.03162 µM)	relative viability (RO-3306 + Vorinostat; first compound 0.1 µM)	relative viability (RO-3306 + Vorinostat; first compound 0.3162 µM)	relative viability (RO-3306 + Vorinostat; first compound 1 µM)	relative viability (RO-3306 + AZD7762; first compound 0.01 µM)	relative viability (RO-3306 + AZD7762; first compound 0.03162 µM)	relative viability (RO-3306 + AZD7762; first compound 0.1 µM)	relative viability (RO-3306 + AZD7762; first compound 0.3162 µM)	relative viability (RO-3306 + AZD7762; first compound 1 µM)	relative viability ([1]; first compound 0.8 µM)	relative viability ([1]; first compound 2.53 µM)	relative viability ([1]; first compound 8 µM)	relative viability (RO-3306 + Alpelisib; first compound 0.01 µM)	relative viability (RO-3306 + Alpelisib; first compound 0.03162 µM)	relative viability (RO-3306 + Alpelisib; first compound 0.1 µM)	relative viability (RO-3306 + Alpelisib; first compound 0.3162 µM)	relative viability (RO-3306 + Alpelisib; first compound 1 µM)
NCI-H522	0.93	0.792	0.98	0.959	0.801	0.914	0.734	0.914	0.89	0.843	1.39	1.27	1.07					
NCI-H1651	0.559	0.535	0.529	0.544	0.511	0.437	0.406	0.454	0.424	0.469	0.995	0.871	0.732	1.07	0.927	0.913	0.867	0.987
NCI-H23	0.828		0.547	0.55	0.501	0.249		0.21	0.303	0.227	0.2	0.206	0.255	0.729	0.685	0.573	0.69	0.517
NCI-H322M	0.878	0.859	0.807	0.868	0.584	0.538	0.697	0.625	0.597	0.582	1.13	0.946	1	0.8	0.7	0.707	0.888	0.827
HCC-44	1.1	1.15	1.08	1.13	1.17	1.04	1.1	1.01	1	1.01		1.13	1.08	0.853	0.836	0.817	1.03	0.832
NCI-H1648	0.348		0.291	0.408	0.351	0.809		0.697	0.643	0.625								
UMC-11	0.386	0.376	0.384	0.339	0.322						1.19	1.13	1.13	1.03	0.753	0.948	1.18	1.12
NCI-H2228	0.648	0.737	0.615	0.612	0.368						0.154	0.165	0.122	0.623	0.777	0.865	0.673	0.609
NCI-H661	0.875	0.727	0.801	0.773	0.807						0.89	0.866	0.821	0.736	0.735	0.686	0.745	0.688
A549														0.744		0.72	0.756	0.715
NCI-H2023	0.684	0.524	0.651	0.806	0.5						0.921	0.638	0.535	0.758	0.448	0.558	0.661	0.564
NCI-H1792						0.76		0.657	0.709	0.661	0.419	0.359	0.269	0.803		0.668	0.757	0.457
NCI-H1299														1.07	0.808	1.05	1.07	1.12
HCC-78	0.428	0.457	0.367	0.494	0.418	0.536	0.498	0.595	0.682	0.513				0.326	0.279	0.359	0.376	0.339
SW 1573	0.67	0.598	0.738	0.715	0.763						0.266	0.218	0.207	0.701		0.848	0.832	0.905
Calu-6														1.21	0.91	1.04	0.931	0.982
NCI-H1563											0.545	0.485	0.551	0.992	0.906	0.823	1	0.898
NCI-H2342	0.691	0.687	0.735	0.751	0.76	0.437	0.448	0.524	0.536	0.464	0.809	0.782	0.628					
COR-L 105	0.779	0.773	0.77	0.759	0.751						0.784	0.665	0.659	1.36	0.835	1.06	1.09	0.998
NCI-H520	0.779	0.589	0.676	0.693	0.664						0.218	0.242	0.237	0.992	0.811	0.838	0.854	0.836
NCI-H1650	0.648	0.545	0.472	0.558	0.613						0.184	0.2	0.231					
SK-LU-1	0.854	0.711	0.786	0.786	0.605						0.169	0.165	0.196	1.03	1.07	0.951	1.02	0.973
SW 900	0.574	0.272	0.462	0.535	0.34	0.652	0.511	0.653	0.587	0.626	0.181	0.192	0.172					
EBC-1														0.895	0.727	1.04	0.965	0.904
HCC-366	0.454	0.279	0.25	0.378	0.308	0.242	0.215	0.254	0.347	0.417				0.377	0.347	0.389	0.503	0.34
ChaGo-K-1	0.808	0.654	0.699	0.782	0.557	1.08	0.694	0.84	0.945	0.769	0.573	0.719	0.706					
